Test results taken from patent US9062048B2, “Cyclohexyl-azetidinyl antagonists of CCR2” (Janssen Pharmaceutica NV, priority 2010, dated 2015).

Biological target: CCR2 (Homo sapiens (Human), UniProt P41597)
Assay: MCP-1 Receptor Binding Assay in THP-1 Cells;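 further: THP-1 is a human monocytic cell line, and nonspecific binding was defined with 1 µM unlabeled MCP-1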
Conditions: 0.5 nM 125I labeled MCP-1, 2 hours at 30° C., read-out: Inhibition of MCP-1 Binding IC50 MCP1B

Chain of CCR2 (P41597 whole entry): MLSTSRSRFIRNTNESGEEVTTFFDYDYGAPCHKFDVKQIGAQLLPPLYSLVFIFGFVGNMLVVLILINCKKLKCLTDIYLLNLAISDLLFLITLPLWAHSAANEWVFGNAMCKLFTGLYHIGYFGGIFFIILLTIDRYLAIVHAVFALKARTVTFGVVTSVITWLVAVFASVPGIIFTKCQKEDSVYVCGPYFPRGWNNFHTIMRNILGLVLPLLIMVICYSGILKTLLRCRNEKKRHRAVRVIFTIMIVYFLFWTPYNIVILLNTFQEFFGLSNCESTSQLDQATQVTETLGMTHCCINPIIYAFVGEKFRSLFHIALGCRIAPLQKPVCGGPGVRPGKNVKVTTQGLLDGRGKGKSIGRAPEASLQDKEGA

SMILES: CN([C@H]1CC[C@@H](N2CC(NC(=O)CNc3ncnc4ccc(C(F)(F)F)cc34)C2)CC1)S(C)(=O)=O [Example 49, N-(1-((1s,4s)-4-(N-methylmethylsulfonamido)cyclohexyl)azetidin-3-yl)-2-((6-(trifluoromethyl)quinazolin-4-yl)amino)acetamide]
- IC50: 0.95 µM

SMILES: O=C(CNc1ncnc2ccc(C(F)(F)F)cc12)NC1CN([C@H]2CC[C@@H](N3CCCCC3=O)CC2)C1 [Example 56, N-(1-((1s,4s)-4-(2-oxopiperidin-1-yl)cyclohexyl)azetidin-3-yl)-2-((6-(trifluoromethyl)quinazolin-4-yl)amino)acetamide]
- IC50: 0.55 µM

SMILES: CC(C)(C)C(O)[C@H]1CC[C@@H](N2CC(NC(=O)CNc3ncnc4ccc(C(F)(F)F)cc34)C2)CC1 (stereo partly drawn) [Example 98, N-(1-((1R,4s)-4-(1-hydroxy-2,2-dimethylpropyl)cyclohexyl)azetidin-3-yl)-2-((6-(trifluoromethyl)quinazolin-4-yl)amino)acetamide]
- IC50: 0.753 µM

SMILES: O=C(CNc1ncnc2ccc(C(F)(F)F)cc12)NC1CN([C@H]2CC[C@@H](C3COC(=O)N3)CC2)C1 (stereo partly drawn) [Example 16, N-(1-((1R,4s)-4-(2-oxooxazolidin-4-yl)cyclohexyl)azetidin-3-yl)-2-((6-(trifluoromethyl)quinazolin-4-yl)amino)acetamide]
- IC50: 0.035 µM

SMILES: O=C(CNc1ncnc2ccc(C(F)(F)F)cc12)NC1CN([C@H]2CC[C@@H](N3C(=O)CCC3=O)CC2)C1 [Example 57, N-(1-((1s,4s)-4-(2,5-dioxopyrrolidin-1-yl)cyclohexyl)azetidin-3-yl)-2-((6-(trifluoromethyl)quinazolin-4-yl)amino)acetamide]
- IC50: 0.28 µM

SMILES: CCC(=O)N(C)[C@H]1CC[C@@H](N2CC(NC(=O)CNc3ncnc4ccc(C(F)(F)F)cc34)C2)CC1 [Example 45, N-Methyl-N-((1s,4s)-4-(3-(2-((6-(trifluoromethyl)quinazolin-4-yl)amino)acetamido)azetidin-1-yl)cyclohexyl)propionamide]
- IC50: 0.39 µM

SMILES: O=C(CNc1ncnc2ccc(C(F)(F)F)cc12)NC1CN([C@H]2CC[C@@H](C3CC=CCO3)CC2)C1 (stereo partly drawn) [Example 2, N-(1-((1S,4s)-4-(−3,6-dihydro-2H-pyran-2-yl)cyclohexyl)azetidin-3-yl)-2-((6-(trifluoromethyl)quinazolin-4-yl)amino)acetamide and N-(1-((1S,4r)-4-(3,6-dihydro-2H-pyran-2-yl)cyclohexyl)azetidin-3-yl)-2((6-(trifluoromethyl)quinazolin-4-yl)amino)acetamide]
- IC50: 0.005 µM

SMILES: CC(C)(C)OC(=O)NC[C@H]1CC[C@@H](N2CC(NC(=O)CNc3ncnc4ccc(C(F)(F)F)cc34)C2)CC1 [Example 113, tert-butyl (((1s,4s)-4-(3-(2-((6-(trifluoromethyl)quinazolin-4-yl)amino)acetamido)azetidin-1-yl)cyclohexyl)methyl)carbamate]
- IC50: 0.12 µM

SMILES: O=C(CNc1ncnc2ccc(C(F)(F)F)cc12)NC1CN([C@H]2CC[C@@H](N3CCC(F)(F)C3)CC2)C1 [Example 131, N-(1-((1s,4s)-4-(3,3-difluoropyrrolidin-1-yl)cyclohexyl)azetidin-3-yl)-2-((6-(trifluoromethyl)quinazolin-4-yl)amino)acetamide]
- IC50: 0.3 µM

SMILES: CCC(NC(=O)OC)[C@H]1CC[C@@H](N2CC(NC(=O)CNc3ncnc4ccc(C(F)(F)F)cc34)C2)CC1 (stereo partly drawn) [Example 144, methyl ((S)-1-((1s,4R)-4-(3-(2-((6-(trifluoromethyl)quinazolin-4-yl)amino)acetamido)azetidin-1-yl)cyclohexyl)propyl)carbamate]
- IC50: 0.64 µM

SMILES: O=C(CNc1ncnc2ccc(C(F)(F)F)cc12)NC1CN(C2CCC(c3ncccc3O)CC2)C1 (stereo not shown) [Example 1, N-(1-(4-(3-hydroxypyridin-2-yl)cyclohexyl)azetidin-3-yl)-2-((6-(trifluoromethyl)quinazolin-4-yl)amino)acetamide]
- IC50: 0.004 µM

SMILES: CC(C)C(O)[C@H]1CC[C@@H](N2CC(NC(=O)CNc3nccc4ccc(C(F)(F)F)cc34)C2)CC1 (stereo partly shown) [Example 169]
- IC50: 0.035 µM

SMILES: O=C(CNc1ncnc2ccc(C(F)(F)F)cc12)NC1CN([C@H]2CC[C@@H](O)CC2)C1 [Example 110, N-(1-((1s,4s)-4-hydroxycyclohexyl)azetidin-3-yl)-2-((6-(trifluoromethyl)quinazolin-4-yl)amino)acetamide]
- IC50: 0.068 µM

SMILES: O=C(CNc1ncnc2ccc(C(F)(F)F)cc12)NC1CN([C@H]2CC[C@@H](C(=O)N3CCCC3)CC2)C1 [Example 130, N-(1-((1s,4s)-4-(pyrrolidine-1-carbonyl)cyclohexyl)azetidin-3-yl)-2-((6-(trifluoromethyl)quinazolin-4-yl)amino)acetamide]
- IC50: 1 µM

SMILES: O=C(CNc1ncnc2ccc(C(F)(F)F)cc12)NC1CN([C@H]2CC[C@@H]([C@@H](O)C3CC3)CC2)C1 [(+) 4, N-(1-((1S,4s)-4-(cyclopropyl(hydroxy)methyl)cyclohexyl)azetidin-3-yl)-2-((6-(trifluoromethyl)quinazolin-4-yl)amino)acetamide]
- IC50: 0.024 µM

SMILES: N#Cc1cc(NCC(=O)N[C@H]2C[C@H](N3CCC(O)(c4cncs4)CC3)C2)c2cc(C(F)(F)F)ccc2n1 [Example 164, 2-((2-cyano-6-(trifluoromethyl)quinolin-4-yl)amino)-N-((1r,3r)-3-(4-hydroxy-4-(thiazol-5-yl)piperidin-1-yl)cyclobutyl)acetamide]
- IC50: > 25 µM

SMILES: CCCC(O)(CCC)[C@H]1CC[C@@H](N2CC(NC(=O)CNc3ncnc4ccc(C(F)(F)F)cc34)C2)CC1 [Example 32, N-(1-((1s,4s)-4-(4-hydroxyheptan-4-yl)cyclohexyl)azetidin-3-yl)-2-((6-(trifluoromethyl)quinazolin-4-yl)amino)acetamide]
- IC50: 0.69 µM

SMILES: CC(O)[C@H]1CC[C@@H](N2CC(NC(=O)CNc3ncnc4ccc(C(F)(F)F)cc34)C2)CC1 (stereo partly drawn) [Example 97, N-(1-((1S,4s)-4-(1-hydroxyethyl)cyclohexyl)azetidin-3-yl)-2-((6-(trifluoromethyl)quinazolin-4-yl)amino)acetamide]
- IC50: 0.089 µM

SMILES: CC[C@@H](O)[C@H]1CC[C@@H](N2CC(NC(=O)CNc3nccc4ncc(C(F)(F)F)cc34)C2)CC1 (stereo in doubt) [Example 150, N-(1-((1R,4s)-4-((S)-1-hydroxypropyl)cyclohexyl)azetidin-3-yl)-2-((3-(trifluoromethyl)-1,6-naphthyridin-5-yl)amino)acetamide]
- IC50: 0.43 µM

SMILES: COCC[C@H]1CC[C@@H](N2CC(NC(=O)CNc3ncnc4ccc(C(F)(F)F)cc34)C2)CC1 [Example 121, N-(1-((1s,4s)-4-(2-methoxyethyl)cyclohexyl)azetidin-3-yl)-2-((6-(trifluoromethyl)quinazolin-4-yl)amino)acetamide]
- IC50: 0.098 µM

SMILES: CCCC(=O)N(C)[C@H]1CC[C@@H](N2CC(NC(=O)CNc3ncnc4ccc(C(F)(F)F)cc34)C2)CC1 [Example 46, N-methyl-N-((1s,4s)-4-(3-(2-((6-(trifluoromethyl)quinazolin-4-yl)amino)acetamido)azetidin-1-yl)cyclohexyl)butyramide]
- IC50: 0.81 µM

SMILES: CCC(NS(C)(=O)=O)[C@H]1CC[C@@H](N2CC(NC(=O)CNc3ncnc4ccc(C(F)(F)F)cc34)C2)CC1 (stereo partly drawn) [Example 139, N-(1-((1R,4s)-4-((S)-1-(methylsulfonamido)propyl)cyclohexyl)azetidin-3-yl)-2-((6-(trifluoromethyl)quinazolin-4-yl)amino)acetamide]
- IC50: 1.45 µM

SMILES: CC(C)(C)OC(=O)NC1CCC(N2CC(NC(=O)CNc3ncnc4ccc(C(F)(F)F)cc34)C2)CC1 (stereo not shown) [Example 125, tert-butyl (4-(3-(2-((6-(trifluoromethyl)quinazolin-4-yl)amino)acetamido)azetidin-1-yl)cyclohexyl)carbamate]
- IC50: 0.22 µM

SMILES: C=C[C@H]1CC[C@@H](N2CC(NC(=O)CNc3ncnc4ccc(C(F)(F)F)cc34)C2)CC1 [Example 9, 2-((6-(trifluoromethyl)quinazolin-4-yl)amino)-N-(1-((1s,4s)-4-vinylcyclohexyl)azetidin-3-yl)acetamide and 2-((6-(trifluoromethyl)quinazolin-4-yl)amino)-N-(1-((1r,4r)-4-vinylcyclohexyl)azetidin-3-yl)acetamide]
- IC50: 0.009 µM

SMILES: NC[C@H]1CC[C@@H](N2CC(NC(=O)CNc3ncnc4ccc(C(F)(F)F)cc34)C2)CC1 [Example 116, N-(1-((1s,4s)-4-(aminomethyl)cyclohexyl)azetidin-3-yl)-2-((6-(trifluoromethyl)quinazolin-4-yl)amino)acetamide]
- IC50: 0.24 µM

SMILES: CC(C)(O)[C@H]1CC[C@@H](N2CC(NC(=O)CNc3ncnc4ccc(C(F)(F)F)cc34)C2)CC1 [Example 29, N-(1-((1s,4s)-4-(2-hydroxypropan-2-yl)cyclohexyl)azetidin-3-yl)-2-((6-(trifluoromethyl)quinazolin-4-yl)amino)acetamide]
- IC50: 0.033 µM

SMILES: CC(C)C(=O)NC[C@H]1CC[C@@H](N2CC(NC(=O)CNc3ncnc4ccc(C(F)(F)F)cc34)C2)CC1 [Example 114]
- IC50: 0.28 µM

SMILES: CN(C(=O)OCc1ccccc1)[C@H]1CC[C@@H](N2CC(NC(=O)CNc3ncnc4ccc(C(F)(F)F)cc34)C2)CC1 [Example 42]
- IC50: 0.21 µM

SMILES: C=CCC(O)[C@H]1CC[C@@H](N2CC(NC(=O)CNc3ncnc4ccc(C(F)(F)F)cc34)C2)CC1 (stereo partly drawn) [Example 91, N-(1-((1S,4s)-4-(1-hydroxybut-3-en-1-yl)cyclohexyl)azetidin-3-yl)-2-((6-(trifluoromethyl)quinazolin-4-yl)amino)acetamide]
- IC50: 0.016 µM

SMILES: O=C(CNc1ncnc2ccc(C(F)(F)F)cc12)NC1CN([C@H]2CC[C@@H](N3CCOCC3)CC2)C1 [Example 132, N-(1-((1s,4s)-4-morpholinocyclohexyl)azetidin-3-yl)-2-((6-(trifluoromethyl)quinazolin-4-yl)amino)acetamide]
- IC50: 0.19 µM

SMILES: CC(C)[C@H](O)C1CCC(N2CC(NC(=O)CNc3ncnc4ccc(C(F)(F)F)cc34)C2)CC1 (single isomer, unassigned; (+)) [(+) 8]
- IC50: 0.044 µM
